PMC9250534, “Synthesis and direct assay of large macrocycle diversities by combinatorial late-stage modification at picomole scale” (Nature Communications, 2022)
Numbered stars: 1 amine (or outer) side, 2 acyl side, 3 side chain; on linkers, the order of the positions; unused ones are H or OH. Bridge positions count the residues as written; N and C are the ends. Square brackets hold non-standard residues; d marks the D form. Peptide text beside a SMILES is read from it. * marks the point of attachment. Pro(4S-NHCO(5-Cl-2-thienyl)) = O=C(N[C@@H]1CN[C@H](C(=O)O)C1)c1ccc(Cl)s1; Cyclopropanecarbonyl(1-CN) = N#CC1(C(=O)*)CC1; Isoxazole3carbonyl(5-Me) = Cc1cc(C(=O)*)no1; Benzoyl(4-Cl) = O=C(c1ccc(Cl)cc1)*; Cysteamide = C(CS[*:3])N[*:1]; MeOSuc = COC(=O)CCC(=O)*; X1 = O=C(/C=C/c1ccccc1)*; Dap = NC[CH](N)C(=O)O; Mpa = O=C(O)CCS

Molecular target: MDM2 (Homo sapiens, UniProt Q00987)
Assay: MDM2 binding screen: displacement of fluorescent p53 peptide probe FP53 (fluorescence polarization)
Details: for fraction fluorescent probe displaced, Screen: initial screen; for fraction fluorescent probe displaced, Screen / fraction fluorescent probe displaced, Replicate: crude macrocycle reactions; for fraction fluorescent probe displaced: 10 µM macrocycle concentration, crude acylated macrocycle (scaffold Mpa-AA1-AA2-AA3 x carboxylic acid), p53-based fluorescent peptide, human MDM2
Procedure: We screened Library 2 in 384-microwell plates by dispensing the target protein MDM2 and reporter peptide into the wells containing the macrocycle reactions.
The products were screened for displacement of a p53-based fluorescent peptide from human MDM2. Final macrocycle concentrations were 10 µM. For each macrocycle, the MDM2 binding was measured once.
One fluorescence anisotropy reading was taken with a Tecan Infinite F200 Pro fluorescence plate reader (excitation at 485 nm, emission at 535 nm) at 25 °C. Data was collected and exported using the Tecan Infinite M200 Pro instrument software. The data was analyzed by Excel (version 2016).

Chain of MDM2 (Q00987 whole entry): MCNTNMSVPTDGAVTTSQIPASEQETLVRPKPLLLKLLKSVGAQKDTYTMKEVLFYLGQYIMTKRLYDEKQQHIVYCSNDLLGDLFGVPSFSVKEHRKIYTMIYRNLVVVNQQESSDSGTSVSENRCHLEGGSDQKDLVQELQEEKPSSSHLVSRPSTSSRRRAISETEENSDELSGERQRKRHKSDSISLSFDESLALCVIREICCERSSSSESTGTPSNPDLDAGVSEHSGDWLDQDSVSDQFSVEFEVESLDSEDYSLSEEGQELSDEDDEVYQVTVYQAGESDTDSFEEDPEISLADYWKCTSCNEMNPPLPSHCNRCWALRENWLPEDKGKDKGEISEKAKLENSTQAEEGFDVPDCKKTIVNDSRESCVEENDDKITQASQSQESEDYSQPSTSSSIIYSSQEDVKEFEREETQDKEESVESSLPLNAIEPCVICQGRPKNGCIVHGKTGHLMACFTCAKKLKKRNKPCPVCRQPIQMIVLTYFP

O=C1CCNC(=O)[C@H](Cc2c[nH]c3ccccc23)NC(=O)CCSSCCNC(=O)[C@H](CNC(=O)c2ccc(Cl)s2)N1 [X W B2 D3 Acid 14]
fraction fluorescent probe displaced, Screen (Acid 14): 0.23 | fraction fluorescent probe displaced, Replicate (Acid 14): 0.35

O=C1CCNC(=O)C(CNC(=O)c2ccc(Cl)s2)NC(=O)C(Cc2ccccc2)NC(=O)CCSSCCN1 (centres unmarked) [X F D3 B2 Acid 14]
fraction fluorescent probe displaced, Screen (Acid 14): 0.053 | fraction fluorescent probe displaced, Replicate (Acid 14): 0.0465

COC(=O)CCC(=O)NC[C@@H]1NC(=O)[C@@H]2CCCN2C(=O)CCSSCCNC(=O)[C@H](Cc2c[nH]c3ccccc23)NC1=O [X-B1-D3-W + A93] ([Mpa]P[Dap](MeOSuc)W-Cysteamide; disulfide 1-C)
fraction fluorescent probe displaced: 0.1339

O=C1CCSSCCNC(=O)[C@@H]2C[C@H](NC(=O)c3ccc(Cl)s3)CN2C(=O)CCNC(=O)[C@H](Cc2ccccc2)N1 [X F B2 D5 Acid 14]
fraction fluorescent probe displaced, Screen (Acid 14): 0.08 | fraction fluorescent probe displaced, Replicate (Acid 14): 0.07

O=C1CCNC(=O)[C@H](Cc2c[nH]c3ccccc23)NC(=O)C2(CCN(C(=O)/C=C/c3ccccc3)CC2)NC(=O)CCSSCCN1 [X D6 W B2 Acid 91]
fraction fluorescent probe displaced, Screen (Acid 91): 0.14 | fraction fluorescent probe displaced, Replicate (Acid 91): 0.07

O=C(/C=C/c1ccccc1)NC[C@@H]1NC(=O)[C@@H]2CCCN2C(=O)CCSSCCNC(=O)[C@H](Cc2c[nH]c3ccccc23)NC1=O [X-B1-D3-W + A91] ([Mpa]P[Dap](X1)W-Cysteamide; disulfide 1-C)
fraction fluorescent probe displaced: 0.1099

Cc1cc(C(=O)NC[C@@H]2NC(=O)[C@@H]3CCCN3C(=O)CCSSCCNC(=O)[C@H](Cc3c[nH]c4ccccc34)NC2=O)no1 [X-B1-D3-W + A3] ([Mpa]P[Dap](Isoxazole3carbonyl(5-Me))W-Cysteamide; disulfide 1-C)
fraction fluorescent probe displaced: 0.08125

O=C(/C=C/c1ccccc1)N[C@H]1C[C@H]2C(=O)N[C@@H](Cc3ccccc3)C(=O)NCc3cccc(c3)C(=O)NCCSSCCC(=O)N2C1 [X D5 F B5 Acid 91]
fraction fluorescent probe displaced, Screen (Acid 91): -0.05 | fraction fluorescent probe displaced, Replicate (Acid 91): -0.00827

O=C1CCSSCCNC(=O)[C@@H]2CCCN2C(=O)[C@@H]2C[C@H](NC(=O)c3ccc(Cl)s3)CN2C(=O)[C@H](Cc2ccccc2)N1 [X F D5 B1 Acid 14] ([Mpa]F[Pro(4S-NHCO(5-Cl-2-thienyl))]P-Cysteamide; disulfide 1-C)
fraction fluorescent probe displaced, Screen (Acid 14): 0.14 | fraction fluorescent probe displaced, Replicate (Acid 14): 0.0465

O=C1CCSSCCNC(=O)C(CNC(=O)c2ccc(Cl)cc2)NC(=O)C2CCCN2C(=O)C(Cc2ccccc2)N1 (centres unmarked) [X F B1 D3 Acid 25] ([Mpa]FP[Dap](Benzoyl(4-Cl))-Cysteamide; disulfide 1-C; configuration not given here)
fraction fluorescent probe displaced, Screen (Acid 25): 0.12 | fraction fluorescent probe displaced, Replicate (Acid 25): 0.22

O=C1CCSSCCNC(=O)[C@H](Cc2ccccc2)NC(=O)[C@H](CNC(=O)c2ccc(Cl)s2)NC(=O)CCN1 [X B2 D3 F Acid 14]
fraction fluorescent probe displaced, Screen (Acid 14): -0.00483 | fraction fluorescent probe displaced, Replicate (Acid 14): 0.0465

O=C1CCNC(=O)C2(CCN(C(=O)c3ccc(Cl)cc3)CC2)NC(=O)[C@H](Cc2c[nH]c3ccccc23)NC(=O)CCSSCCN1 [X W D6 B2 Acid 25]
fraction fluorescent probe displaced, Screen (Acid 25): 0.0244 | fraction fluorescent probe displaced, Replicate (Acid 25): 0.0465

O=C1CCSSCCNC(=O)[C@H](Cc2ccccc2)NC(=O)[C@H]2CCCN(C2)C(=O)[C@H](CNC(=O)c2ccc(Cl)s2)N1 [X D3 B4 F Acid 14]
fraction fluorescent probe displaced, Screen (Acid 14): 0.0241 | fraction fluorescent probe displaced, Replicate (Acid 14): 0.10

O=C(C=Cc1ccccc1)NC1CC2C(=O)N3CCCC3C(=O)NCCSSCCC(=O)NC(Cc3c[nH]c4ccccc34)C(=O)N2C1 (centres unmarked) [X W D5 B1 Acid 91]
fraction fluorescent probe displaced, Screen (Acid 91): 0.08 | fraction fluorescent probe displaced, Replicate (Acid 91): 0.07

N#CC1(C(=O)NC[C@@H]2NC(=O)[C@@H]3CCCN3C(=O)CCSSCCNC(=O)[C@H](Cc3ccccc3)NC2=O)CC1 [X-B1-D3-F + A56] ([Mpa]P[Dap](Cyclopropanecarbonyl(1-CN))F-Cysteamide; disulfide 1-C)
fraction fluorescent probe displaced: 0
